Measured values reported in US6358885B1, “Substituted phenylheterocyclic herbicides” (Mississippi State University, priority 1992, dated 2002).

Experiments:
barley [1] = test: Test B preemergence/postemergence greenhouse plant response rating 0 to 10; type: in vivo, Hordeum vulgare; details: 0 to 10 scale
In short: (§1)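 Both application timings were run together: seeds got compound preemergence, and established seedlings (two to eighteen cm) got it postemergence. Non-phytotoxic solvent carried the chemical. Ratings are visual, versus controls, at twelve to sixteen days.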

bedstraw [2] = test: as above; type: in vivo, Galium aparine; details: 0 to 10 scale
In short: as §1

blackgrass [3] = test: as above; type: in vivo, Alopecurus myosuroides; details: 0 to 10 scale
In short: as §1

cheatgrass = test: as above; type: in vivo, Bromus secalinus; details: 0 to 10 scale
In short: as §1

cotton = test: as above; type: in vivo, Gossypium hirsutum; details: 0 to 10 scale
In short: as §1

rape = test: as above; type: in vivo, Brassica napus; details: 0 to 10 scale
In short: as §1

rice = test: as above; type: in vivo, Oryza sativa; details: 0 to 10 scale
In short: as §1

sorghum [4] = test: as above; type: in vivo, Sorghum bicolor; details: 0 to 10 scale
In short: as §1

wheat = test: as above; type: in vivo, Triticum aestivum; details: 0 to 10 scale
In short: as §1

barley [5] = test: Test C preemergence/postemergence greenhouse plant response rating 0 to 100; type: in vivo, Hordeum vulgare; details: for Plant response rating Barley Igri: 62 g/ha, 0 to 100 scale
In short: (§2)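 Compounds in non-phytotoxic solvent applied preemergence to sandy loam one day after planting, postemergence at the 1–4 leaf stage, or to ~2.5 cm floodwater over silt loam.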

bedstraw [6] = test: as above; type: in vivo, Galium aparine; details: for Plant response rating, Bedstraw: 62 g/ha, 0 to 100 scale
In short: as §2

blackgrass [7] = test: as above; type: in vivo, Alopecurus myosuroides; details: for Plant response rating, Blackgrass: 62 g/ha, 0 to 100 scale
In short: as §2

pigweed = test: as above; type: in vivo, Amaranthusretroflexus; details: for Plant response rating Pigweed: 62 g/ha, 0 to 100 scale
In short: as §2

ryegrass = test: as above; type: in vivo, Lolium multiflorum; details: for Plant response rating Ryegrass: 62 g/ha, 0 to 100 scale
In short: as §2

sorghum [8] = test: as above; type: in vivo, Sorghum bicolor
In short: as §2

sugar beet = test: as above; type: in vivo, Beta vulgaris
In short: as §2

wild buckwheat = test: as above; type: in vivo, Polygonum convolvulus
In short: as §2

duck salad = test: Test C flood test plant response rating 0 to 100; type: in vivo, Heteranthera limosa
In short: as §2

[9] = POSTEMERGENCE, 62 g/ha, 0 to 100 scale

CCN1C(=O)COc2cc(F)c(-c3nn4c(c3Cl)CCCC4)cc21 [Compound 54]
1: Plant response rating, Cheatgrass (cheatgrass; PREEMERGENCE, Rate 10 g/ha) | Plant response rating, Cotton (cotton; PREEMERGENCE, Rate 10 g/ha) | Plant response rating, Sorghum (sorghum [4]; PREEMERGENCE, Rate 50 g/ha)
65: Plant response rating (0 to 100), Bedstraw (bedstraw [6]; POSTEMERGENCE, Rate 1 g/ha)
70: Plant response rating, Blackgrass (blackgrass [7]; PREEMERGENCE) | Plant response rating Ryegrass (ryegrass; PREEMERGENCE)
35: Plant response rating (0 to 100), Duck salad (duck salad; Rate 16 g/ha, under POSTEMERGENCE head (flood test species))
85: Plant response rating (0 to 100), Bedstraw (bedstraw [6]; POSTEMERGENCE, Rate 4 g/ha)
60: Plant response rating, Blackgrass (blackgrass [7]; POSTEMERGENCE) | Plant response rating Ryegrass (ryegrass; POSTEMERGENCE) | Plant response rating, Sorghum (sorghum [8]; [9])
6: Plant response rating, Blackgrass (blackgrass [3]; POSTEMERGENCE, Rate 50 g/ha) | Plant response rating, Rape (rape; PREEMERGENCE, Rate 50 g/ha) | Plant response rating, Wheat (wheat; POSTEMERGENCE, Rate 10 g/ha) | Plant response rating, Wheat (wheat; POSTEMERGENCE, Rate 50 g/ha)
0: Plant response rating, Barley (barley [1]; PREEMERGENCE, Rate 10 g/ha) | Plant response rating, Rice (rice; PREEMERGENCE, Rate 50 g/ha) | Plant response rating (0 to 100), Barley Igri (barley [5]; PREEMERGENCE, Rate 1 g/ha) | Plant response rating (0 to 100), Barley Igri (barley [5]; PREEMERGENCE, Rate 4 g/ha) | Plant response rating (0 to 100), Barley Igri (barley [5]; Rate 16 g/ha, PREEMERGENCE) | Plant response rating (0 to 100), Bedstraw (bedstraw [6]; PREEMERGENCE, Rate 1 g/ha) | Plant response rating (0 to 100), Bedstraw (bedstraw [6]; PREEMERGENCE, Rate 4 g/ha) | Plant response rating (0 to 100), Blackgrass (blackgrass [7]; PREEMERGENCE, Rate 1 g/ha) | Plant response rating (0 to 100), Pigweed (pigweed; PREEMERGENCE, Rate 1 g/ha) | Plant response rating (0 to 100), Ryegrass (ryegrass; PREEMERGENCE, Rate 1 g/ha) | Plant response rating (0 to 100), Ryegrass (ryegrass; PREEMERGENCE, Rate 4 g/ha) | Plant response rating (0 to 100), Sorghum (sorghum [8]; PREEMERGENCE, Rate 1 g/ha) | Plant response rating (0 to 100), Sorghum (sorghum [8]; PREEMERGENCE, Rate 4 g/ha) | Plant response rating (0 to 100), Sorghum (sorghum [8]; Rate 16 g/ha, PREEMERGENCE) | Plant response rating (0 to 100), Sugar beet (sugar beet; PREEMERGENCE, Rate 1 g/ha) | Plant response rating (0 to 100), Wild buckwheat (wild buckwheat; PREEMERGENCE, Rate 1 g/ha) | Plant response rating (0 to 100), Wild buckwheat (wild buckwheat; PREEMERGENCE, Rate 4 g/ha) | Plant response rating (0 to 100), Duck salad (duck salad; POSTEMERGENCE section, flood test, Rate 1 g/ha) | Plant response rating (0 to 100), Duck salad (duck salad; POSTEMERGENCE section, flood test, Rate 4 g/ha)
95: Plant response rating (0 to 100), Pigweed (pigweed; POSTEMERGENCE, Rate 1 g/ha)
40: Plant response rating (0 to 100), Barley Igri (barley [5]; POSTEMERGENCE, Rate 4 g/ha) | Plant response rating (0 to 100), Blackgrass (blackgrass [7]; POSTEMERGENCE, Rate 4 g/ha) | Plant response rating (0 to 100), Ryegrass (ryegrass; Rate 16 g/ha, POSTEMERGENCE) | Plant response rating (0 to 100), Sorghum (sorghum [8]; POSTEMERGENCE, Rate 4 g/ha)
7: Plant response rating, Cheatgrass (cheatgrass; POSTEMERGENCE, Rate 50 g/ha)
30: Plant response rating (0 to 100), Barley Igri (barley [5]; POSTEMERGENCE, Rate 1 g/ha) | Plant response rating (0 to 100), Bedstraw (bedstraw [6]; Rate 16 g/ha, PREEMERGENCE) | Plant response rating (0 to 100), Blackgrass (blackgrass [7]; POSTEMERGENCE, Rate 1 g/ha) | Plant response rating (0 to 100), Ryegrass (ryegrass; POSTEMERGENCE, Rate 4 g/ha) | Plant response rating (0 to 100), Ryegrass (ryegrass; Rate 16 g/ha, PREEMERGENCE)
50: Plant response rating Barley Igri (barley [5]; POSTEMERGENCE) | Plant response rating (0 to 100), Barley Igri (barley [5]; Rate 16 g/ha, POSTEMERGENCE) | Plant response rating, Bedstraw (bedstraw [6]; PREEMERGENCE) | Plant response rating (0 to 100), Blackgrass (blackgrass [7]; Rate 16 g/ha, POSTEMERGENCE) | Plant response rating (0 to 100), Sorghum (sorghum [8]; Rate 16 g/ha, POSTEMERGENCE)
10: Plant response rating, Cotton (cotton; POSTEMERGENCE, Rate 10 g/ha) | Plant response rating, Cotton (cotton; POSTEMERGENCE, Rate 50 g/ha) | Plant response rating, Rape (rape; POSTEMERGENCE, Rate 10 g/ha) | Plant response rating, Rape (rape; POSTEMERGENCE, Rate 50 g/ha) | Plant response rating Barley Igri (barley [5]; PREEMERGENCE) | Plant response rating (0 to 100), Blackgrass (blackgrass [7]; PREEMERGENCE, Rate 4 g/ha) | Plant response rating (0 to 100), Ryegrass (ryegrass; POSTEMERGENCE, Rate 1 g/ha) | Plant response rating (0 to 100), Sugar beet (sugar beet; PREEMERGENCE, Rate 4 g/ha)
3: Plant response rating, Blackgrass (blackgrass [3]; PREEMERGENCE, Rate 10 g/ha) | Plant response rating, Blackgrass (blackgrass [3]; PREEMERGENCE, Rate 50 g/ha) | Plant response rating, Cheatgrass (cheatgrass; PREEMERGENCE, Rate 50 g/ha) | Plant response rating, Rice (rice; POSTEMERGENCE, Rate 10 g/ha) | Plant response rating, Sorghum (sorghum [4]; POSTEMERGENCE, Rate 10 g/ha) | Plant response rating, Sorghum (sorghum [4]; POSTEMERGENCE, Rate 50 g/ha) | Plant response rating, Wheat (wheat; PREEMERGENCE, Rate 50 g/ha)
20: Plant response rating (0 to 100), Blackgrass (blackgrass [7]; Rate 16 g/ha, PREEMERGENCE) | Plant response rating (0 to 100), Sorghum (sorghum [8]; POSTEMERGENCE, Rate 1 g/ha)
100: Plant response rating, Bedstraw (bedstraw [6]; POSTEMERGENCE) | Plant response rating (0 to 100), Bedstraw (bedstraw [6]; Rate 16 g/ha, POSTEMERGENCE) | Plant response rating Pigweed (pigweed; POSTEMERGENCE) | Plant response rating (0 to 100), Pigweed (pigweed; POSTEMERGENCE, Rate 4 g/ha) | Plant response rating Pigweed (pigweed; PREEMERGENCE) | Plant response rating (0 to 100), Pigweed (pigweed; Rate 16 g/ha, POSTEMERGENCE) | Plant response rating (0 to 100), Pigweed (pigweed; Rate 16 g/ha, PREEMERGENCE) | Plant response rating, Sugar beet (sugar beet; [9]) | Plant response rating (0 to 100), Sugar beet (sugar beet; POSTEMERGENCE, Rate 1 g/ha) | Plant response rating (0 to 100), Sugar beet (sugar beet; POSTEMERGENCE, Rate 4 g/ha) | Plant response rating (0 to 100), Sugar beet (sugar beet; Rate 16 g/ha, POSTEMERGENCE) | Plant response rating (0 to 100), Sugar beet (sugar beet; Rate 16 g/ha, PREEMERGENCE) | Plant response rating, Wild buckwheat (wild buckwheat; [9]) | Plant response rating (0 to 100), Wild buckwheat (wild buckwheat; POSTEMERGENCE, Rate 1 g/ha) | Plant response rating (0 to 100), Wild buckwheat (wild buckwheat; POSTEMERGENCE, Rate 4 g/ha) | Plant response rating (0 to 100), Wild buckwheat (wild buckwheat; Rate 16 g/ha, POSTEMERGENCE) | Plant response rating (0 to 100), Wild buckwheat (wild buckwheat; Rate 16 g/ha, PREEMERGENCE) | Plant response rating Duck salad (duck salad; flood test species listed under POSTEMERGENCE, 62 g/ha, 0 to 100 scale)
4: Plant response rating, Barley (barley [1]; POSTEMERGENCE, Rate 10 g/ha) | Plant response rating, Barley (barley [1]; POSTEMERGENCE, Rate 50 g/ha) | Plant response rating, Rice (rice; POSTEMERGENCE, Rate 50 g/ha)
5: Plant response rating, Blackgrass (blackgrass [3]; POSTEMERGENCE, Rate 10 g/ha) | Plant response rating, Cheatgrass (cheatgrass; POSTEMERGENCE, Rate 10 g/ha)
90: Plant response rating (0 to 100), Pigweed (pigweed; PREEMERGENCE, Rate 4 g/ha)
9: Plant response rating, Bedstraw (bedstraw [2]; POSTEMERGENCE, Rate 10 g/ha) | Plant response rating, Bedstraw (bedstraw [2]; POSTEMERGENCE, Rate 50 g/ha) | Plant response rating, Bedstraw (bedstraw [2]; PREEMERGENCE, Rate 50 g/ha)
8: Plant response rating, Bedstraw (bedstraw [2]; PREEMERGENCE, Rate 10 g/ha)
2: Plant response rating, Barley (barley [1]; PREEMERGENCE, Rate 50 g/ha) | Plant response rating, Cotton (cotton; PREEMERGENCE, Rate 50 g/ha)
